Data on three compounds can be found in patent US7439262B1, “Substituted 1-alkylamino-1-H-indazoles for the treatment of glaucoma” (Alcon, Inc., priority 2003, dated 2008).

Series [1] deals with T1, 5-HT2A (Rattus norvegicus, UniProt P14842). In words: 5-HT2 Functional Assay: [Ca2+]i Mobilization (FLIPR). Type of series: cell-based. The note with it: for EC50: [Ca2+]i mobilization, A7r5 rat vascular smooth muscle cells; for Emax: percentage of a maximum 5-HT-induced response, A7r5 cells. Details: endogenous in cells; host or cells: A7r5 rat vascular smooth muscle cells. The protocol: 5-HT2 Functional Assay: [Ca^2+]i Mobilization
The receptor-mediated mobilization on intracellular calcium ([Ca^2+]i) was studied using the Fluorescence Imaging Plate Reader (FLIPR) instrument. Rat vascular smooth muscle cells, A7r5, were grown in a normal media of DMEM/10% FBS and 10 μg/mL gentamycin. Confluent cell monolayers were trypsinized, pelleted, and re-suspended in normal media. Cells were seeded in a 50 μL volume at a density of 20,000 cells/well in a black wall, 96-well tissue culture plate and grown for 2 days.
On the day of the experiment, one vial of FLIPR Calcium Assay Kit dye was re-suspended in 50 mL of a FLIPR buffer consisting of Hank's Balanced Salt Solution (HBSS), 20 mM HEPES, and 2.5 mM probenecid, pH 7.4. Cells were loaded with the calcium-sensitive dye by addition of an equal volume ([…]) to each well of the 96-well plate and incubated with dye for 1 h at 23° C.
Typically, test compounds were stored at 25 μM in 50% DMSO/50% Ethanol solvent. Compounds were diluted 1:50 in 20% DMSO/20% Ethanol. For “hit” screening, compounds were further diluted 1:10 in FLIPR buffer and tested at a final concentration of 10 μM. For dose-response experiments, compounds were diluted 1:50 in FLIPR buffer and serially diluted 1:10 to give a 5- or 8-point dose-response curve.
The compound plate and cell plate were placed in the FLIPR instrument. At the beginning of an experimental run, a signal test was performed to check the basal fluorescence signal from the dye-loaded cells and the uniformity of the signal across the plate. The basal fluorescence was adjusted between 8000-12000 counts by modifying the exposure time, the camera F-stop, or the laser power. Instrument settings for a typical assay were the following: laser power 0.3-0.6 W, camera F-stop F/2, and exposure time 0.4 sec. An aliquot (25 μL) of the test compound was added to the existing 100 μL dye-loaded cells at a dispensing speed of 50 μL/sec. Fluorescence data were collected in real-time at 1.0 sec intervals for the first 60 secs and at 6.0 sec intervals for an additional 120 secs. Responses were measured as peak fluorescence intensity minus basal and where appropriate were expressed as a percentage of a maximum 5-HT-induced response [Emax %]. When the compounds were tested as antagonists against 10 μM 5-HT, they were incubated with the cells for 15 minutes prior to the addition of 5-HT.

Series [2] has as its target T1, 5-HT2A. In words: 5-HT2 Receptor Binding Assay ([125I]DOI competition). The note with it: [125I]DOI binding, post mortem rat or human cerebral cortex homogenates. The protocol: 5-HT2 Receptor Binding Assay
Aliquots of post mortem rat or human cerebral cortex homogenates (400 μL) dispersed in 50 mM Tris HCl buffer (pH 7.4) are incubated with [^125I]DOI (80 pM final) in the absence or presence of methiothepin (10 μM final) to define total and non-specific binding, respectively, in a total volume of 0.5 mL. The assay mixture is incubated for 1 hour at 23° C. in polypropylene tubes and the assays terminated by rapid vacuum filtration over Whatman GF/13 glass fiber filters previously soaked in 0.3% polyethyleneimine using ice-cold buffer. Test compounds (at different concentrations) are substituted for methiothepin. Filter-bound radioactivity is determined by scintillation spectrometry on a beta counter. The data are analyzed using a non-linear, iterative curve-fitting computer program [Trends Pharmacol. Sci., 16, 413 (1995)] to determine the compound affinity parameter. The concentration of the compound needed to inhibit the [^125I]DOI binding by 50% of the maximum is termed the […].

Where a name gives a salt, the structure may show the parent alone.

T1 sequence (P14842 whole entry): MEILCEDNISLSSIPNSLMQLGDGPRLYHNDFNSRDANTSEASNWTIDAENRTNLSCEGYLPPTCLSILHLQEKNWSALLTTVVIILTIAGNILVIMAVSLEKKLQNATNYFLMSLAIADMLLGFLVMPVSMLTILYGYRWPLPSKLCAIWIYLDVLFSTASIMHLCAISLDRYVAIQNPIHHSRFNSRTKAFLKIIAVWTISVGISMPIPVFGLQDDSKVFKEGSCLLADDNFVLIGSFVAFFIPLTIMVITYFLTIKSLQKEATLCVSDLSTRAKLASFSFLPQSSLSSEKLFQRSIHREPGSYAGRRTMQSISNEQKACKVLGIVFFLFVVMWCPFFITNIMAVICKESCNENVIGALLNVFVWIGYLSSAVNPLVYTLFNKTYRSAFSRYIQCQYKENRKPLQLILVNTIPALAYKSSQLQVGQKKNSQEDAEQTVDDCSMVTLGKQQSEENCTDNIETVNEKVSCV

In general, melting point refers to the temperature, or range, at which the solid turns liquid. Take `CCOC(=O)c1ccc2cnn(C[C@H](C)N)c2c1` (as salt: fumaric acid salt) [Example 1, 1-((S)-2-Aminopropyl)-1H-indazole-6-carboxylic acid ethyl ester]: the melting point fell in the range of 150 to 152 °C.

Broadly, the EC50 is the midpoint of the concentration-response curve. Low readings indicate a more potent agent, high ones a less potent agent. The term Emax denotes the size of the effect at its maximum, as opposed to the concentration needed. For orientation: IC50 means the concentration that inhibits the measured activity by half. Higher therefore signals weaker potency. On to `C[C@H](N)Cn1ncc2ccc(C(N)=O)cc21` [Example 2, 1-((S)-2-Aminopropyl)-1H-indazole-6-carboxylic acid amide], for which the melting point was in the range of 170 to 172 °C. In series [1], this compound registered a concentration for a half-maximal effect (EC50) of 0.465 µM and a maximal response (Emax) of 90%. Further, the half-inhibitory concentration (IC50) in series [2] is 0.0059 µM.

Take `CCOC(=O)c1ccc2cnn(C[C@H](C)N)c2c1` [Example 1, 1-((S)-2-Aminopropyl)-1H-indazole-6-carboxylic acid ethyl ester]: in series [1], the EC50 was determined as 0.837 µM and the maximal effect (Emax) was 86%. The IC50 in series [2] was 0.01 µM.
